These results are taken from patent US20030149235A1, “Targeting peptides” (priority 2000, published 2003).

“Also recorded” adds a separate entry of the source. Non-standard residues stand in square brackets, D forms with d. Residues, ends and D or L forms follow the SMILES beside them. *: point of attachment. Nle = CCCC[C@H](N)C(=O)O; Cbz = O=C(OCc1ccccc1)*

One series has as its system HUVEC. Briefly: wtAAVegfp transduction, eGFP fluorimetry. The format is cell-based, human. The conditions noted are these: 250 transduction units/cell, 40 μM LLnL, 4 μM mg132, 5 μg/ml aphidicolin, 10 μM etoposide. The source says:
FIG. 6 illustrates the efficiency of AAV-mediated gene transfer to ECs. (A) HUVEC and HeLa cells were mock infected (open bars) or infected with 1000 transduction units/cell of wtAAVegfp (filled bars) and analyzed for eGFP expression by fluorimetry and fluorescence microscopy. (B) ECs were infected with 250 transduction units/cell wtMVegfp in the presence or absence of mg132, LLnL, genistein, hydroxyurea, aphidicolin, etoposide, or camptothecin and harvested for quantification of eGFP by fluorimetry at either 24 h or 96 h postinfection. RFU, relative fluorescent units. *Indicates statistical significance from wtMVegfp alone at the same time point. Representative of three independent experiments;
Cells were plated to reach 80% confluence 24 h later. In each case an accurate cell count was performed immediately before infection. Cells were infected with increasing doses of AAV vectors in the presence or absence of helper adenovirus (Ad) as indicated. For each cell type, Ad co-infection was performed at a dose that mediated 70% transduction, based on prior infection efficiency experiments performed on each cell type using a LacZ-expressing Ad, RAd35. At the required time point, cells were washed and lysed in 0.2% Triton X-100 in PBS and stored at −20° C. For dissection of AAV transduction of EC, cells were incubated with AAV in the absence or presence of 40 μM LLnL, 4 μM mg132, 50 μM genistein, 40 mM hydroxyurea, 5 μg/ml aphidicolin, 10 μM etoposide, 0.1 μM camptothecin or 150 nM bafilomycin A2.
Cells were infected as indicated above in the absence or presence of 1 IU heparin/[…] genomic particles and analyzed for gene expression 72 h later. In addition a column assay was carried out. AAVwt or AAVsig were loaded onto heparin columns (immobilized on cross-linked 4% beaded agarose; Sigma) that had been prepacked and equilibrated according to the manufacturer's recommendations. Purified viral preparations (6.4×10^11 particles) in 200 μl were loaded, and the flow-through, wash, and 1 M NaCl eluates were collected and analyzed by dot-blot hybridization using twofold serial dilutions. For quantification of wtAAVegfp-mediated gene transfer to vascular EC, aliquots of cell extracts were analyzed in triplicate for eGFP expression using a Wallac Victor2 multi-counter with recombinant eGFP (Clontech, Basingstoke, Hants., UK) as a standard. All data were analyzed as eGFP relative light units (RFU)/mg protein. For analysis of AAVsig and AAVwtdriven lacZ expression, aliquots of cell extracts were analyzed for beta-galactosidase expression using Galacto-Light Plus (Tropix, Mass., U.S.A.) as per manufacturer's recommendations using recombinant beta-galactosidase (Sigma, UK) as a standard. All data were expressed as RLU/mg protein.

Series [1] deals with HEC. Description: Binding of homogenous candidate phage to cells. Further details: species or system human. The conditions noted are these: 10^7 pfu. As for the experimental part:
(§1) 10^7 pfu of homogenous phage populations containing candidate peptides were panned on human endothelial cells (HEC), vascular smooth muscle cells (VSMC) and HepG2 hepatocytes, binding from a control peptide-less phage, subtracted and recovery calculated and expressed as a percentage of HEC;
(§2) Phage libraries were amplified, purified and titered according to manufacturers protocols. HEC were plated into 6 well plates and cultured until 2 days post-confluence. 1×10^9 pfu of input phage library was used to pan confluent cultures of HEC (passage 2-4) in triplicate. First we used a direct screening approach and biopanned HEC for 4 rounds. Second we biopanned on HEC after biopanning for 1 hour on 2 successive cultures of VSMC, HepG2 and peripheral blood mononuclear cells (pre-clearing steps). Prior to biopanning growth media was changed to 1 ml DMEM containing 1% bovine serum albumin (BSA) and the plates were incubated at 4° C. for 15 minutes. For HEC, 1×10^9 pfu of pre-cleared or stock phage library was incubated with cells for 1 hour at 4° C. Cells were washed 5 times in ice-cold PBS/1% BSA for 5 minutes per wash. Weakly associated phage were eluted in 1 ml 0.2 M glycine (pH 2.2) for 10 minutes on ice, followed by neutralisation with 200 μl Tris-HCl (pH 8.0). High affinity phage (tightly-bound phage) were isolated by lysing the cells in 1 ml of 30 mM Tris-HCL/1 mM EDTA (pH 8.0) for 1 hour on ice. Cell debris was removed and the supernatant recovered. Phage were amplified and titered between each round to ensure that 10^9 pfu of input phage were used at the start of each successive round. Following completion of biopanning, E. coli ER2537 were infected with the resulting phage, plated and individual plaques picked, amplified, and sequenced. For further binding studies, high titer homogenous populations of each phage were prepared. Briefly, 1×10^7 pfu of each phage were biopanned on HEC, VSMC and HepG2 cells for 30 minutes at 4° C. […] The percentage recovery was calculated for each cell type using a peptide-less phage to allow for background binding.

The subject of the next series is HepG2 hepatocytes. Briefly: Binding of homogenous candidate phage to cells. On the set-up: species or system human. As for the experimental part:
as §1, §2

Another series deals with VSMC. Briefly: Binding of homogenous candidate phage to cells. Further details: species or system human. As for the experimental part:
as §1, §2

Series [2] has as its system HEC. The conditions noted are these: peptide fused to an antibody against the Ad5 fiber knob; reference [47]; cited from earlier work.

Turning to `CC(C)C[C@@H](C=O)NC(=O)[C@H](CC(C)C)NC(=O)[C@H](CC(C)C)NC(=O)OCc1ccccc1` [mg132] (Cbz-Leu-Leu-Leu-aldehyde), the “effect of agent on wtAAVegfp reporter gene expression versus infection without treatment” value in the series with HUVEC is “increase”.
Same read-out and setting: the same measure for `COc1cc([C@@H]2c3cc4c(cc3[C@@H](O[C@@H]3O[C@@H]5CO[C@@H](C)O[C@H]5[C@H](O)[C@H]3O)[C@H]3COC(=O)[C@H]23)OCO4)cc(OC)c1O` [etoposide]: “enhanced”; for `CCCC[C@@H](C=O)NC(=O)[C@H](CC(C)C)NC(=O)[C@H](CC(C)C)NC(C)=O` [LLnL] (Ac-Leu-Leu-[Nle]-aldehyde): “increase”.
With SIGYPLP, in the series with HEC [1], the “binding to HEC” value was “high-level binding”. Moreover, in the series with HepG2 hepatocytes, the “binding to HepG2 hepatocytes compared to HEC” value is “limited binding; also recorded: low-level affinity”. In the series on VSMC, the “binding to VSMC compared to HEC” value is “limited binding; also recorded: low-level affinity”. Further, the “adenoviral gene transfer into human EC versus non-targeted Ad” value in the series with HEC [2] is 15 fold.
Regarding `C[C@@]1(CO)[C@H](O)CC[C@@]2(C)[C@H]1CC[C@H]1C[C@@H]3C[C@@]12CC[C@]3(O)CO` [aphidicolin], in the series on HUVEC, the “effect of agent on wtAAVegfp reporter gene expression versus infection without treatment” value is on record as “enhanced”.
